Values joined by “and” are separate entries in the source; they are usually repeats but may differ in a detail not shown here. Equal values may be shown once. Marks after values point to notes of the source that are not given here. Positions of bridges follow the written chain, without caps; N, C: chain ends. Non-standard residues stand in square brackets, D forms with d. Residues, ends and D or L forms follow the SMILES beside them. Chains are numbered I, II in the order given. *: point of attachment. PNA(A) = NCCN(CC(=O)*)C(=O)Cn1cnc2c(N)ncnc21; Adenin9ylacetyl = Nc1ncnc2c1ncn2CC(=O)*; N(CH2CH2NHAc)Gly = CC(=O)NCCNCC(=O)O
Experiments:
[1] = test system: MRP-1 expression in LS180 colon cancer cells; assay: MRP-1 expression in LS180 colon cancer cells, flow cytometry; assay type: cell-based; details: LS180 control cell population exposed to doxorubicin for 72 h
Experimental: (§1) The protocol used for fixing the cells for flow cytometry is as follows. A minimum of 1.0×10^6 cells was used in each instance. Cells were trypsinized and spun down at 1,000/5 min at 4° C. All the medium was removed and the cells resuspended in 500 μl of 1×PBS, pH 7.1. The cell suspension was added into 5 mls of 1% paraformaldehyde/PBS on ice and fixed for 15 min on ice. Cells were then centrifuged at 1,000/5 min and resuspended in 10 mls of 1×PBS. Cells were centrifuged again at 1,000/5 min and resuspended in 2 mls of 70% ETOH and kept at −20° C. until needed (up to 1 week). At which time, 2 mls of 1×PBS containing 1% BSA/0.02% NaN3 was added to each tube and the cells were left on ice for 5 min to give the cells time to rehydrate. Cells were then centrifuged at 1,000/5 min and the ETOH/PBS mix removed. […]
(§2) In view of the key role of the Pgp170 and MRP-1 proteins in MDR, the effect of the PKI compounds on expression of these proteins in LS180 colon cancer cells and H-661 NSCLC cells was investigated. […] The number of cells individually analysed amounted to approximately 50,000 with a statistical error of about 0.08%.
(§3) The increase in the expression of P-gp and MRP-1 was assessed by comparing the % of cells expressing the protein in question in the presence and absence of doxorubicin (i.e. the ratio A/B in the Tables).

[2] = test system: LS180 colon cancer cells; assay: Rhodamine influx and efflux in LS180 colon cancer cells; assay type: cell-based; details: doxorubicin exposed controls
Experimental: (§4) The amount of rhodamine influx and efflux following treatment of LS180 colon cancer cells and H-661 NSCLC cells with the PKI compounds was also investigated. The measurement of rhodamine efflux and influx is a common procedure that provides a quantitative estimation of the level of multidrug resistance due to typical MDR and non-P-gp MDR. Both exogenous treatment using 5 μg/mL of the PKI compounds provided at the same time as doxorubicin, and endogenous incorporation, in which a single dose of 5 mM was used with the standard pinocytic endocytosis protocol, were investigated.
(§5) The MDR-1 pump functions only as an efflux pump, however, it modulates the cell entry of rhodamine (that can diffuse through the membrane). Upon toxicant exposure, rhodamine accumulates in the cells. Ratios of rhodamine fluorescence in doxorubicin exposed versus untreated controls (CT) are lower if the pump is inhibited.

[3] = test system: PKCα expression in H-661 NSCLC cells; assay: Expression of PKCα in H-661 cells, flow cytometry; assay type: cell-based; details: H-661 control cells exposed to doxorubicin for 72 h
Experimental: (§6) The effect of compounds 1 to 10 on doxorubicin-induced expression of PKCα in LS180 colon cancer cells and H-661 NSCLC cells was investigated. Cells were exposed to doxorubicin (50 ng/mL) for 3 days prior to exogenous treatment with the PKI compounds at a concentration of 5 μM. Results were acquired by flow cytometry after labelling of the cells with the PKC-alpha #sc 208 antibody.
as §1, with “removed. The cells were resuspended in 5 mls of 1×PBS and allowed to sit on ice for 5 min.” for “removed.”

[4] = test system: MRP-1 expression in H-661 NSCLC cells; assay: MRP-1 expression in H-661 NSCLC cells, flow cytometry; assay type: cell-based; details: H-661 control cell population exposed to doxorubicin for 72 h
Experimental: as §1, §2, §3

[5] = test system: Pgp expression in LS180 colon cancer cells; assay: Pgp expression in LS180 colon cancer cells, flow cytometry; assay type: cell-based; details: LS180 control cell population exposed to doxorubicin for 72 h
Experimental: as §1, §2, §3

[6] = test system: Pgp expression in H-661 NSCLC cells; assay: Pgp expression in H-661 NSCLC cells, flow cytometry; assay type: cell-based; details: H-661 control cell population exposed to doxorubicin for 72 h
Experimental: as §1, §2, §3

[7] = test system: PKCα expression in LS180 colon cancer cells; assay: Expression of PKCα in LS180 cells, flow cytometry; assay type: cell-based; details: LS180 control cells exposed to doxorubicin for 72 h
Experimental: as §6
as §1, with “removed. The cells were resuspended in 5 mls of 1×PBS and allowed to sit on ice for 5 min.” for “removed.”

[8] = test system: H-661 NSCLC cells; assay: Rhodamine influx and efflux in H-661 NSCLC cells; assay type: cell-based; details: control cells exposed to doxorubicin
Experimental: as §4, §5

[9] = biological target: Akt/PKB (Homo sapiens, UniProt P31749); assay: Luminescence Kinase Glo assay, Akt/PKB; assay type: biochemical; details: 150000.0
Experimental: The ability of the PKI compounds to inhibit PKA, CDK2, Akt/PKB, MAPKp38 and CK2a2 protein kinases was assessed using the Luminescence Kinase Glo® Kit (Promega V6711) according to the manufacturer's instructions. In brief the protocol was as follows:
All kinases were prepared in their respective 1× buffers. 20 μL of […] reaction buffer was added to each well. 10 μL of PKI compound and 10 μL of the test kinase solution were added followed by 10 μL of the Reaction Solution (containing activators, ATP and substrate). The reactions were incubated at 30° C. for 30 min and then 50 μL of Kinase-Glo® was added. Luminescence was measured after 10-15 min on a Galaxy reader.

Akt/PKB, sequence (P31749 whole entry): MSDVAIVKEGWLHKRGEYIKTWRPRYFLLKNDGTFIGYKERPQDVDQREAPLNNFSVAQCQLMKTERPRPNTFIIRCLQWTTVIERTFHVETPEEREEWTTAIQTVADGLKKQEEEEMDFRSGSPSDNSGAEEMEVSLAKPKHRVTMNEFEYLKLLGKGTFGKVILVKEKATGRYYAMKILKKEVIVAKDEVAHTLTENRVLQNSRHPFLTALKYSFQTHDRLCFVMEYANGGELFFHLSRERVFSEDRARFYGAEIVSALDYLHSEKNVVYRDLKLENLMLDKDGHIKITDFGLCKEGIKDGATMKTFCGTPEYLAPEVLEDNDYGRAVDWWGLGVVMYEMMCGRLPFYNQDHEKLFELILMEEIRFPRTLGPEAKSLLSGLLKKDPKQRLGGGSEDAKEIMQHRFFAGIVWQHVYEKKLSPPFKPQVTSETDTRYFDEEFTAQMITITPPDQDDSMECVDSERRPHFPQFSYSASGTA

## COc1cccc2c1C(=O)c1c(O)c3c(c(O)c1C2=O)C[C@@](O)(C(=O)CO)C[C@@H]3O[C@H]1C[C@H](N)[C@H](O)[C@H](C)O1 [doxorubicin]
[1]
  increase in number of MRP-1 labelled cells, average: 3.41 times
[2]
  rhodamine accumulation: 1.58 times and 1.43 times and 1.37 times
[3]
  increase in log fluorescence relative intensity (PKCα), average: 2.19 times
[4]
  increase in number of MRP-1 labelled cells, average: 12.05 times
[5]
  increase in number of P-gp labelled cells, average: 2.38 times
[6]
  increase in number of P-gp labelled cells, average: 15.0 times
[7]
  increase in log fluorescence relative intensity (PKCα), average: 1.99 times
[8]
  increase in rhodamine retention: ~2.00 times

## CC(=O)N[C@@H](CCCCN)C(=O)N[C@@H](CC(C)C)C(=O)N[C@@H](CCCNC(=N)N)C(=O)N[C@@H](CCCNC(=N)N)C(=O)N[C@@H](C)C(=O)N[C@@H](CCCCNC(=O)CN(CCN)C(=O)Cn1cnc2c(N)ncnc21)C(=O)N[C@@H](CC(C)C)C(=O)NCC(=O)N[C@@H](CC(C)C)C(=O)NCC(=O)N[C@@H](CC(=O)O)C(=O)N[C@@H](CC(=O)O)C(N)=O [Compound 8] (Ac-KLRRAK(PNA(A))LGLGDD-NH2)
[9]
  % Inhibition Akt/PKB: 0%

## CC(=O)NCCN(CC(=O)NCC(=O)N[C@@H](CS)C(=O)N[C@@H](CCCCN)C(=O)NCC(=O)N[C@@H](CCCCN)C(=O)N[C@@H](Cc1ccccc1)C(=O)N[C@@H](CCCCN)C(=O)N[C@@H](CCCNC(=N)N)C(N)=O)C(=O)Cn1cnc2c(N)ncnc21 [Compound 10] (Adenin9ylacetyl-[N(CH2CH2NHAc)Gly]GCKGKFKR-NH2; N-terminus and C-terminus assumed)
[9]
  % Inhibition Akt/PKB: 21%

## CC[C@H](C)[C@H](NC(=O)[C@H](CSSC[C@H](NC(=O)CNC(=O)CN(CCNC(C)=O)C(=O)Cn1cnc2c(N)ncnc21)C(=O)N[C@@H](CCCCN)C(=O)NCC(=O)N[C@@H](CCCCN)C(=O)N[C@@H](Cc1ccccc1)C(=O)N[C@@H](CCCCN)C(=O)N[C@@H](CCCNC(=N)N)C(N)=O)NC(=O)[C@H](Cc1c[nH]cn1)NC(C)=O)C(=O)NCC(=O)N[C@@H](CCCNC(=N)N)C(=O)N[C@@H](Cc1ccccc1)C(=O)N[C@@H](CCCCN)C(N)=O [Compound 1] (I: Adenin9ylacetyl-[N(CH2CH2NHAc)Gly]GCKGKFKR-NH2 / II: Ac-HCIGRFK-NH2; disulfide I:3-II:2; N-terminus and C-terminus assumed)
[9]
  % Inhibition Akt/PKB: −31* %

## CC(=O)N[C@@H](CCCCN)C(=O)N[C@@H](CC(C)C)C(=O)N[C@@H](CCCNC(=N)N)C(=O)N[C@@H](CCCNC(=N)N)C(=O)N[C@@H](C)C(=O)N[C@@H](CCCCNC(=O)CN(CCN)C(=O)Cn1cnc2c(N)ncnc21)C(=O)N[C@@H](CCCNC(=N)N)C(=O)N[C@@H](Cc1ccccc1)C(=O)N[C@@H](CC(C)C)C(=O)N[C@@H](CCC(=O)O)C(=O)N[C@H](C(=O)N[C@@H](CC(=O)O)C(N)=O)C(C)C [Compound 7] (Ac-KLRRAK(PNA(A))RFLEVD-NH2)
[9]
  % Inhibition Akt/PKB: −7* %

## CC(=O)N[C@@H](CCCCN)C(=O)N[C@@H](CC(C)C)C(=O)N[C@@H](CCCCN)C(=O)N[C@@H](CCCCN)C(=O)N[C@@H](C)C(=O)N[C@@H](CCCCNC(=O)CN(CCN)C(=O)Cn1cnc2c(N)ncnc21)C(=O)N[C@@H](CC(C)C)C(=O)NCC(=O)N[C@@H](CC(C)C)C(N)=O [Compound 9] (Ac-KLKKAK(PNA(A))LGL-NH2; N-terminus and C-terminus assumed)
[9]
  % Inhibition Akt/PKB: 7%

## CC(=O)N[C@@H](CCCCN)C(=O)N[C@@H](Cc1ccccc1)C(=O)N[C@@H](CCCNC(=N)N)C(=O)N[C@@H](CCCNC(=N)N)C(=O)N[C@@H](CCCCNC(=O)CN(CCN)C(=O)Cn1cnc2c(N)ncnc21)C(=O)N[C@@H](CC(C)C)C(=O)N[C@@H](CCCNC(=N)N)C(=O)N[C@@H](CC(C)C)C(=O)N[C@@H](CCC(=O)O)C(=O)N[C@H](C(=O)N[C@@H](CC(=O)O)C(N)=O)C(C)C [Compound 6] (Ac-KFRRK(PNA(A))LRLEVD-NH2)
[9]
  % Inhibition Akt/PKB: −10* %

## CC(=O)N[C@@H](CCCCN)C(=O)N[C@@H](Cc1ccccc1)C(=O)N[C@@H](CCCNC(=N)N)C(=O)N[C@@H](CCCNC(=N)N)C(=O)N[C@@H](CCCCNC(=O)CN(CCN)C(=O)Cn1cnc2c(N)ncnc21)C(=O)N[C@@H](CCCNC(=N)N)C(=O)NCC(=O)N[C@@H](CCCNC(=N)N)C(=O)N[C@@H](CCC(=O)O)C(=O)N[C@H](C(=O)N[C@@H](CC(=O)O)C(N)=O)C(C)C [Compound 5] (Ac-KFRRK(PNA(A))RGREVD-NH2)
[9]
  % Inhibition Akt/PKB: −6* %

Source: patent publication US8158586B2, “Inhibitors of protein kinases and uses thereof” (priority 2005, dated 2012)
